Assay results reported in patent publication US12383495B2, “Resident articles for gram-level dosing” (Massachusetts Institute of Technology, priority 2018, dated 2025).
One block for each compound: values may come before it.

What was measured:
[1] = In vitro drug release from drug-vinylpolysiloxane pills/articles in simulated gastric fluid; type: physicochemical; details: for in vitro release from drug-VPS pill: SGF, 37° C., up to 28 days
Experimental: Articles with a series of 30 pills were made so that there was 1 gram of doxycycline hyclate in 2 grams of vinylpolysiloxane. Pills were coated with either cellulose acetate butyrate (CAB) or with Eudragit RS PO. A control with no coatings was also made. The articles were immersed in simulated gastric fluid, and the cumulative release of doxycycline hyclate was measured for more than 26 days. […] Thickness of coatings was tuned by increasing the spray volume. […] Individual pills made of drug-VPS for doxycycline hyclate, isoniazid, ethambutol, pyrazinamide, moxifloxacin were used to evaluate long-term release kinetics in SGF. […] Drug concentrations were then analyzed using a High-Performance Liquid Chromatography (HPLC). […] An Agilent 1260 Infinity II HPLC system (Agilent Technologies, Inc.) equipped with a Model 1260 quaternary pump, Model 1260 High Performance autosampler, Model 1260 thermostat, Model 1260 Infinity Thermostatted Column Compartment control module, and Model 1260 diode array detector was utilized. Data processing and analysis was performed using OpenLab CDS ChemStation (Agilent Technologies, Inc.). All solvents used were purchased from Sigma-Aldrich Corporation. For doxycycline hyclate, chromatographic isocratic separation was carried out on an Agilent 4.6×50 mm AdvanceBio RP-mAb SB-C8 analytical column with 3.5 μm particles, maintained at 55° C. The optimized mobile phase consisted of 20 mM dipotassium phosphate buffer and acetonitrile (pH 6 adjusted with triethylamine) [60:40 (v/v)] at a flow rate of 0.85 mL/min over a 4 min run time. The injection volume was 5 μl, and the selected ultraviolet (UV) detection wavelength was 293 nm.

[2] = In vitro drug release from drug-VPS pills/devices in water; type: physicochemical; details: 37° C.
Experimental: Three intact rifampicin devices were fabricated by loading 2 grams of drug into VPS pills. The devices were incubated in 500 mL of nanopure water for up to 26 days in a shaking incubator at 37° C. and 200 rpm, with media exchange at specified time intervals. […] The drug concentrations samples were then measured on an Infinite M200Pro (Tecan) reader (absorbance, 475 nm).

[3] = pig, in vivo

Compound: CC[C@@H](CO)NCCN[C@@H](CC)CO [ethambutol]
- in vitro release from drug-VPS pill [1]: able to release

Compound: CO[C@H]1/C=C/O[C@@]2(C)Oc3c(C)c(O)c4c(O)c(c(/C=N/N5CCN(C)CC5)c(O)c4c3C2=O)NC(=O)/C(C)=C\C=C\[C@H](C)[C@H](O)[C@@H](C)[C@@H](O)[C@@H](C)[C@H](OC(C)=O)[C@@H]1C [rifampicin]
- duration of detectable serum concentrations [3]: detectable serum concentrations for a week

Compound: doxycycline hyclate
- burst release ([1]; PEG 3350 in matrix, pills coated with Eudragit RS PO or Eudragit NM 30D): prevented the burst release in the first day
- rate of release ([1]; PEG 3350 in matrix, thicker coating of Eudragit NM 30D): slower rate of release
- release kinetic profile ([1]; VPS pills coated with Eudragit RS 100, SGF): linear kinetic profile with limited burst release
- burst release ([1]; article of 30 pills coated with Eudragit RS PO, simulated gastric fluid, vs uncoated control): prevented the burst release in the first couple days
- burst release ([1]; article of 30 pills coated with cellulose acetate butyrate (CAB), simulated gastric fluid, vs uncoated control): prevented the burst release in the first couple days
- duration of drug release (cumulative release) ([1]; articles of 30 pills, 1 gram drug in 2 grams vinylpolysiloxane, CAB-coated, Eudragit RS PO-coated or uncoated, simulated gastric fluid): more than 26 days
- burst release and release rate ([1]; multi-matrix pill (concentric layers of different drug/matrix concentration)): reducing the burst release and release rate
- burst release and release rate ([1]; pills coated with PDMS of different viscosities (750 cst and 25 cst)): blunted the burst release and slowed down the release rate
- effect of excipient on rate of release ([1]; polyethylene glycol (PEG) 3350 added to drug/siloxane matrix): increase the rate of release
- absorption [3]: absorbed rapidly
- duration of detectable drug in serum [3]: at least 28 days
- duration of sustained drug release (non-zero concentrations in the blood) [3]: at least 7 days

Now from value to compound:

- in vitro release from drug-VPS pill/device [2]: able to release
Compound: NNC(=O)c1ccncc1 [isoniazid]

- in vitro release from drug-VPS pill [1]: able to release
Compound: NC(=O)c1cnccn1 [pyrazinamide]
